Test results published in patent publication US9546151B2, “VMAT inhibitory compounds” (Oregon Health & Science University, priority 2014, dated 2017).
Where two headings read alike, the source gives them in different places.

What was measured:
[1] = target: T1, VMAT2 (Homo sapiens, UniProt Q05940); test: hVMAT2 [3H]DTBZ ([3H]DHTB) binding assay; parameters: expressed in transfected cells; host or cells: HEK (human embryonic kidney) cells
Description: (§1) Membrane preparation for binding, uptake and release assays using HEK-hVMAT2 cells: Human embryonic kidney cells expressing the human vesicular monoamine transporter 2 (HEK-hVMAT2) were used. HEK-hVMAT2 cells were grown until confluent. The media was removed from plates, solution A [sucrose (0.32 M) with protease inhibitors] was added to the plate, and cells were scraped from plate. Cells were homogenized with 12 strokes of a glass/glass homogenizer. The homogenate was centrifuged at 800×g for 10 min. The supernatant was removed and saved, and the pellet was resuspended, homogenized and centrifuged as above. The supernatants were combined and centrifuged at 10,000×g for 20 min. The pellet was resuspended in solution A (0.75 ml). The membranes were osmotically shocked by addition of 2.625 ml ice cold water and homogenized by 5 strokes of a glass/Teflon homogenizer. The osmolarity was reestablished with addition of Tris (338 μl, 0.25M, pH 7.4 at 4° C.), sodium potassium tartrate (338 μl, 1.0 M), and MgSO4 (4 μl, 0.9M). The homogenate was centrifuged at 20,000×g for 20 min.
Binding was terminated by filtration over Whatman GF/C filters using a Tomtec 96-well cell harvester. Filters were washed for six seconds with ice-cold saline. Scintillation fluid was added to each square and radioactivity remaining on the filters was determined using a Wallac μ- or beta-plate reader. Specific binding was defined as the difference in binding observed in the presence and absence of Ro4-1284 (10 μM, generously supplied by Hoffman LaRoche). Three or more independent competition experiments were conducted with duplicate determinations.

[2] = target: T1, VMAT2; test: hVMAT2 5HT Uptake; format: biochemical; parameters: expressed in transfected cells; host or cells: HEK (human embryonic kidney) cells
Description: as §1

[3] = target: T2, human 5HT2A receptor (Homo sapiens, UniProt P28223); test: h5HT2A receptors: [125I]DOI binding
T2 construct: expressed in transfected cells; host or cells: HEK cells
T2 sequence (P28223 whole entry): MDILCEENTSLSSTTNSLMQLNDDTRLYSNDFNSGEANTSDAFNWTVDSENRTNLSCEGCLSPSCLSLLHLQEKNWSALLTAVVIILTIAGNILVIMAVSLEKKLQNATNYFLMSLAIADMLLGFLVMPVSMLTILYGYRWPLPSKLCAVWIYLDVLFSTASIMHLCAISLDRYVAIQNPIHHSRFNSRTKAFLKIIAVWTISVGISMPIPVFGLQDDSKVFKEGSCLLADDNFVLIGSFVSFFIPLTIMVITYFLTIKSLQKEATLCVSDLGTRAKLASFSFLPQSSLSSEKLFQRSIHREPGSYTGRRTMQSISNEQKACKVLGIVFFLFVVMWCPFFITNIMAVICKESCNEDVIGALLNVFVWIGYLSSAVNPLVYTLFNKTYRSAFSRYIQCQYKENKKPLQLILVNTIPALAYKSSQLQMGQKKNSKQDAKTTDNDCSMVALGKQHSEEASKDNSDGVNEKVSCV
Description: Method: Human embryonic kidney cells expressing the human 5HT2A receptor (HEK-h5HT2A) or human 5HT2C receptor (HEK-h5HT2C) were used. The cells were grown until confluent on 15 cm plates. Media was removed, cells were washed with phosphate-buffered saline (PBS), scraped into 2 ml PBS and frozen at −20° C. until needed. Cell suspension was thawed, 10 ml assay buffer (50 mM Tris, pH 7.4 at 37° C., with 0.1% ascorbic acid and 5 mM CaCl2) was added per plate of cells, and polytronned at setting 6 for 5 sec. The homogenate was centrifuged at 15,500 rpm for 20 min. […] The final pellet was resuspended in 2 ml buffer/plate of cells.
The reaction was incubated for 1 hour at 37° C., and terminated by filtration through Wallac A filtermats presoaked in 0.05% polyethylenimine using a Tomtec 96-well harvester. Radioactivity remaining on filters was counted in a Wallac betaplate reader. IC50 values were calculated using GraphPad Prism. IC50 values were converted using the Cheng-Prusoff equation.

[4] = target: T3, human 5HT1A receptor (Homo sapiens, UniProt P08908); test: h5HT1A receptors: [3H]8-OH-DPAT binding; conditions: read-out: 5-HT1A [^3H] 8—OH DPAT Ki(nM) ± SEM
T3 construct: expressed in transfected cells; host or cells: HEK cells (G418 selection)
T3 sequence (P08908 1-422): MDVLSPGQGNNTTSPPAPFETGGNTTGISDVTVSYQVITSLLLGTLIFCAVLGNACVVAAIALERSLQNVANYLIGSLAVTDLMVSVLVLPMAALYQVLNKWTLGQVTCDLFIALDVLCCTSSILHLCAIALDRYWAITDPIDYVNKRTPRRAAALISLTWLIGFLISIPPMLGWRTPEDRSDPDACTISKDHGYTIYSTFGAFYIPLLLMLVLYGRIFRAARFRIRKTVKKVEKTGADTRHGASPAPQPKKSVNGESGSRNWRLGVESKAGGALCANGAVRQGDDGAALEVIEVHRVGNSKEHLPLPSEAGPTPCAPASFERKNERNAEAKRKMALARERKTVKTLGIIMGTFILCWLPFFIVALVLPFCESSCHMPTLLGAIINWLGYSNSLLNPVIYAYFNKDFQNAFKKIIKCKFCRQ
Description: Human embryonic kidney cells expressing the human 5HT1A receptor (HEK-h5HT1A) were used. The cells were grown to confluence in DMEM containing 10% FetalClone® (abbreviated as FC—source: HyClone), 0.05% penicillin-streptomycin (pen-strep), and 300 μg/mL of Geneticin (G418). The cells were scraped from 150 mm plates into phosphate-buffered saline and centrifuged at 270×g, 1200 rpm, for 10 minutes. The cell pellet was homogenized in 50 mM Tris-HCl (pH 7.7) with a Polytron, and centrifuged at 27,000×g. […] The final pellet was resuspended at 0.5 mg protein/mL in assay buffer (25 mM Tris-HCl, pH 7.4, containing 100 μM ascorbic acid and 10 μM pargyline). The assay was performed in duplicate in a 96-well plate. Serial dilutions of test compounds were made using the Biomek 2000 robotics system. […] Nonspecific binding was determined with 1.0 μM dihydroergotamine. The plates were incubated at room temperature for 60 minutes and then filtered through polyethylenimine-soaked (0.05%) “A” filtermats on a Tomtec cell harvester. The filters were washed with cold 50 mM Tris buffer (pH 7.7) for 6 sec, dried, spotted with scintillation cocktail, and counted for 2 minutes after a 4 hour delay on a Wallac Betaplate 1205 liquid scintillation counter.

[5] = cells printed in μM under a head in nM, HEK-hVMAT2 membranes
[6] = [^3H]5HT uptake, HEK-hVMAT2 preparation, read-out: hVMAT2 5HT Uptake IC50 (nM) ± SEM
[7] = cells printed in μM under a head in nM, read-out: 5-HT2A [^125I]DOI Ki (nM) ± SEM
[8] = cells printed in μM under a head in nM
[9] = cells printed in μM under a head in nM, read-out: hVMAT2 5HT Uptake IC50 (nM) ± SEM
[10] = HEK-h5HT2A homogenate, read-out: 5-HT2A [^125I]DOI Ki (nM) ± SEM
[11] = HEK-hVMAT2 membranes, series 5 ligands tested as hydrochloride salts

T1 sequence (Q05940 whole entry): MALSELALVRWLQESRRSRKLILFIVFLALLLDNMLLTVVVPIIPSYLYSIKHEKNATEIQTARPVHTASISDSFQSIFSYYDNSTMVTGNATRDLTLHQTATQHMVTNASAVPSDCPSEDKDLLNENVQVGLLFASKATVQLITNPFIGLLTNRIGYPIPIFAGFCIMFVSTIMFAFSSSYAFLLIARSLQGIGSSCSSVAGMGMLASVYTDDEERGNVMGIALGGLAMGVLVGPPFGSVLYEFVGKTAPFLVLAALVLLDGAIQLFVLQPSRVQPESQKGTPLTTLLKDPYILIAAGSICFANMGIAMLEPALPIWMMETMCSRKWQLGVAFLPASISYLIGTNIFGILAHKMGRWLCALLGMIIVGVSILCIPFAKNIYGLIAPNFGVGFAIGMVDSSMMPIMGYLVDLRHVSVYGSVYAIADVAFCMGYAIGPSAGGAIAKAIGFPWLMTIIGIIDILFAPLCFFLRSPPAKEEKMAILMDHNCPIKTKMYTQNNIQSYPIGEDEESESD

SMILES	Ki [1, 5] [µM]	IC50 [2, 6] [nM]	Ki [3, 7] [µM]	Ki [4, 8] [µM]	Ki [3, 10] [µM]	further results
CCOC(=O)[C@@H]1CN(CCn2c(=O)[nH]c3ccccc3c2=O)CC[C@@H]1c1ccc(C(F)(F)F)cc1 (racemic) [Compound 5f, (±) syn-ethyl 1-(2-(2,4-dioxo-1,2-dihydroquinazolin-3(4H)-yl)ethyl)-4-(4-(trifluoromethyl)phenyl)piperidine-3-carboxylate]	> 10	416 ± 43	> 10	> 10	–	–
CCOC(=O)[C@H]1CN(CCn2c(=O)[nH]c3ccccc3c2=O)CC[C@H]1c1cccc(N(C)C)c1 (racemic) [Compound 5aa, (±)-syn-Ethyl 4-(3-(dimethylamino)phenyl)-1-(2-(2,4-dioxo-1,2-dihydroquinazolin-3(4H),-yl)ethyl) piperidine-3-carboxylate]	> 10	–	> 10	> 10	–	IC50 [2, 9]: > 5000 nM
CCOC(=O)[C@@H]1CN(CCn2c(=O)[nH]c3ccccc3c2=O)CC[C@@H]1c1ccc(C)cc1 (racemic) [Compound 5b, (±) syn-ethyl 1-(2-(2,4-dioxo-1,2-dihydroquinazolin-3(4H)-yl)ethyl)-4-(p-tolyl)piperidine-3-carboxylate]	> 9	313 ± 54	> 10	> 10	–	–
CCOC(=O)[C@@H]1CN(CCn2c(=O)[nH]c3ccccc3c2=O)CC[C@@H]1c1cccc(C(F)(F)F)c1 (racemic) [Compound 5g, (±) syn-ethyl 1-(2-(2,4-dioxo-1,2-dihydroquinazolin-3(4H)-yl)ethyl)-4-(3-(trifluoromethyl)phenyl)piperidine-3-carboxylate]	> 10	166 ± 6	> 10	> 10	–	–
CCOC(=O)c1ccc([C@H]2CCN(CCn3c(=O)[nH]c4ccccc4c3=O)C[C@H]2C(=O)OCC)cc1 (racemic) [Compound 5l, (±) syn-ethyl 1-(2-(2,4-dioxo-1,2-dihydroquinazolin-3(4H)-yl)ethyl)-4-(4-(ethoxycarbonyl)phenyl)piperidine-3-carboxylate]	–	–	> 10	> 10	–	–
CC1CN(CCn2c(=O)[nH]c3ccccc3c2=O)CCC1C(=O)c1ccc(F)cc1 (single isomer, unassigned) [R1=H, R2=α-CH3]	> 6.4	–	–	> 5	0.0198 ± 0.0058	IC50 [2, 9]: > 7300 nM
CCOC(=O)[C@@H]1CN(CCn2c(=O)[nH]c3ccccc3c2=O)CC[C@@H]1c1ccc(F)cc1 (racemic) [Compound 5d, (±) syn-ethyl 1-(2-(2,4-dioxo-1,2-dihydroquinazolin-3(4H)-yl)ethyl)-4-(4-fluorophenyl)piperidine-3-carboxylate]	–	–	> 2	> 9	–	–
CC1CN(CCn2c(=O)[nH]c3ccccc3c2=O)CCC1C(=O)c1ccc(F)cc1 (racemic) [R1=H, R2=α/β-CH3]	–	333 ± 106	–	> 10	0.0459 ± 0.0124	Ki [1, 11]: 0.276 ± 0.024 µM
O=C(c1ccc(F)cc1)C1CCN(CCn2c(=O)[nH]c3ccc(Br)cc3c2=O)CC1 [R1=Br, R2=H]	> 3	–	–	> 2	0.0008 ± 0.00024	IC50 [2, 9]: > 2000 nM
CCOC(=O)[C@@H]1CN(CCn2c(=O)[nH]c3ccccc3c2=O)CC[C@@H]1c1ccc(C(C)O)cc1 (mixture of isomers) [Compound 5p, (±) syn-ethyl 1-(2-(2,4-dioxo-1,2-dihydroquinazolin-3(4H)-yl)ethyl)-4-(4-(1-hydroxyethyl)phenyl)piperidine-3-carboxylate]	> 9	–	> 10	> 10	–	melting point: 187 to 188 °C; IC50 [2, 9]: > 8000 nM
CCOC(=O)[C@H]1CN(CCCn2c(=O)[nH]c3ccccc3c2=O)CC[C@H]1c1ccc(F)cc1 (racemic) [n=2, (±)-syn-Ethyl 1-(3-(2,4-dioxo-1,2-dihydroquinazolin-3(4H)-yl)propyl)-4-(4-fluorophenyl)piperidine-3-carboxylate]	–	–	–	> 10	–	Ki [1]: > 10 µM; melting point: 171.8 to 172.4 °C; IC50 [2]: 43 ± 4 nM
CCOC(=O)[C@@H]1CN(CCn2c(=O)[nH]c3ccccc3c2=O)CC[C@@H]1c1ccccc1 (racemic) [Compound 5a, (±) syn-ethyl 1-(2-(2,4-dioxo-1,2-dihydroquinazolin-3(4H)-yl)ethyl)-4-phenylpiperidine-3-carboxylate]	–	17	–	> 10	0.0373 ± 0.0085	Ki [1]: 1.17 ± 0.314 µM
CCOC(=O)C1=C(c2ccccc2)CCN(CCn2c(=O)[nH]c3ccccc3c2=O)C1 [R1=CO2-Et, 3,4-bond=ene]	–	–	–	–	–	Ki ([1]; read-out: hVMAT2 [^3H]DTBZ Ki (nM) ± SEM): 0.874 ± 0.276 µM; IC50 [2]: 66 ± 15 nM; Ki [3]: 0.081 ± 0.026 µM; Ki ([4]; HEK-h5HT1A homogenate): > 0.0063 µM
O=c1[nH]c2ccccc2c(=O)n1CCN1CC=C(c2ccccc2)CC1 [R1=H, 3,4-bond=ene]	–	–	–	–	0.139 ± 0.027	Ki [1, 11]: 0.821 ± 0.197 µM; IC50 [2]: 3.9 ± 0.5 nM; Ki ([4]; HEK-h5HT1A homogenate): 0.197 ± 0.015 µM
CCOC(=O)[C@@H]1CN(CCn2c(=O)c3ccccc3n(C)c2=O)CC[C@@H]1c1cccc(F)c1 (racemic) [Compound 6d, (±)-syn Ethyl 4-(3-fluorophenyl)-1-(2-(1-methyl-2,4-dioxo-1,2-dihydroquinazolin-3(4H)-yl)ethyl)piperidine-3-carboxylate]	> 9	89 ± 12	–	> 10	–	melting point: 101.2 to 102.5 °C
